Broadly, the EC50 is the concentration needed to bring the measured effect to its halfway point. Broadly, the CC50 is the concentration at which the toxic effect on the cells reaches its halfway point.

Some results are limits rather than exact numbers.

Experiment [1] relates to Human immunodeficiency virus 1. In words: Concentration required to protect 50% of HIV-1 infected MT-4 cells against viral cytopathicity. The format is functional, organism-based. The following applies: Human immunodeficiency virus 1, MT4. A general note: Damage to the host cells serves as the signal in cytopathic effect assays.
In the next experiment the test system is MT4. In words: Concentration required to reduce the number of viable uninfected MT-4 cells by 50%. Type of experiment: functional. Particulars: Homo sapiens.
The subject of experiment [2] is Human immunodeficiency virus 2. Nature of the experiment: Concentration required to protect 50% of HIV-2 infected MT-4 cells against viral cytopathicity. Type of experiment: functional, organism-based. The following applies: Human immunodeficiency virus 2, MT4.

With `COP(=O)(O)OCC1C=CC(n2cnc3c(N)ncnc32)O1` (stereo unspecified), the EC50 in experiment [1] was 38 µM; in experiment [2], 58 µM. This compound yielded a CC50 in the experiment on MT4 of 168 µM.

As to `Nc1ccn(C2C=CC(COP(=O)(O)c3ccccc3)O2)c(=O)n1` (stereo unspecified), the EC50 in experiment [1] turned out to be 111 µM; in experiment [2], 136 µM. In addition, the CC50 in the experiment on MT4 is over 500 µM.

On to `Nc1ccn(C2C=CC(COP(O)(=S)c3ccccc3)O2)c(=O)n1` (stereo unspecified), for which the EC50 in experiment [1] and in experiment [2] was over 500 µM throughout. In the experiment with MT4, this compound came in with a CC50 of over 500 µM.

On to `Nc1ncnc2c1ncn2C1C=CC(COP(=O)(O)Oc2ccccc2)O1` (stereo unspecified), for which the figures for the EC50 in experiment [1] and in experiment [2] were 24 µM and 37 µM, respectively. The compound further displayed a CC50 in the experiment with MT4 of 157 µM.

In the case of `COP(=O)(O)OCC1C=CC(n2ccc(N)nc2=O)O1` (stereo unspecified), the concentration giving a half-maximal response (EC50) in experiment [1] turned out to be 3.1 µM; in experiment [2], 1.7 µM. Moreover, in the experiment on MT4, the midpoint of cytotoxicity, the CC50, lay at 27 µM.

For `CC1=CN([C@H]2C[C@H](OP(=O)(O)OC[C@@H]3C=C[C@H](n4ccc(N)nc4=O)O3)[C@@H](CO)O2)C(=O)NC1N` (stereo partly specified), the EC50 in experiment [1] was found to be 1.8 µM; in experiment [2], 1.6 µM. It took 28 µM to reach half-maximal cytotoxicity in the experiment with MT4 (CC50).

Consider `Nc1ncnc2c1ncn2C1C=CC(COP(=O)(O)c2ccccc2)O1` (stereo unspecified), for which the EC50 in experiment [1] and in experiment [2] was over 500 µM throughout. In the experiment on MT4, this compound showed a CC50 of over 500 µM.

On to `Nc1ccn(C2C=CC(COP(=O)(O)Oc3ccccc3)O2)c(=O)n1` (stereo unspecified), for which the figures for the EC50 in experiment [1] and in experiment [2] were 1.9 µM and 1.5 µM, respectively. Moreover, half-maximal cytotoxicity with MT4 (CC50) was put at 35 µM.

As to `CC1=CN([C@H]2C[C@H](OP(=O)(O)OC[C@@H]3C=C[C@H](n4cnc5c(N)ncnc54)O3)[C@@H](CO)O2)C(=O)NC1N` (stereo partly specified), the EC50 in experiment [1] is 26 µM; in experiment [2] it was 29 µM. In addition, the 50% cytotoxic concentration (CC50) in the experiment with MT4 was found to be 198 µM.

Take `Nc1ncnc2c1ncn2[C@H]1CC[C@@H](CO)O1`: the figures for the concentration for a half-maximal effect (EC50) in experiment [1] and in experiment [2] were 41 µM and 72 µM, respectively. Further, the CC50 with MT4 is over 100 µM.

As for `Nc1ccn([C@H]2CC[C@@H](CO)O2)c(=O)n1` [ZALCITABINE], the EC50 in experiment [1] was 0.91 µM; in experiment [2] it was 0.69 µM. This compound also displayed a cytotoxic concentration (CC50) in the experiment with MT4 of 30 µM.

Take `Nc1ncnc2c1ncn2C1C=CC(COP(O)(=S)c2ccccc2)O1` (stereo unspecified): the EC50 in experiment [1] and in experiment [2] was over 500 µM each time. In the experiment on MT4, this compound came in with a CC50 of over 500 µM.
